Reference: patent US20240360151A1 (SANOFI, priority 2023, published 2024)
pIC50: −log10 of the molar value. Structures can show the parent of a compound that is named as a salt.

Legend:
NLRP3 inflammasome = molecular target: T1, NLRP3 inflammasome (Homo sapiens, UniProt Q96P20); assay: IL-1β secretion assay (NLRP3 IC50) in LPS-primed, nigericin-activated THP-1 cells, HTRF; assay type: cell-based; conditions: monocytic THP-1 cells; LPS 10 ng/mL 3 h priming, then compound + nigericin 10 μM 2 h; relative IC50, 10 concentrations, geometric mean
T1 construct: endogenous in cells; host or cells: THP-1 monocytic cells
Procedure, shortened: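 THP-1 cells primed with LPS 10 ng/mL for 3 h at 37° C., then compound (10-point 1:3 dilution, 0.1% DMSO) added with 10 μM nigericin for 2 h. Supernatant IL-1β measured by HTRF; relative IC50 from a 4-parameter logistic fit, reported as geometric mean.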

[1] = tested on: NF-kB pathway (TNF-α secretion by THP-1 cells); assay: TNF-α secretion assay in LPS-stimulated THP-1 cells, Lumit immunoassay; assay type: cell-based, human; conditions: Homo sapiens, THP-1, 3 h, monocytic THP-1 cells, LPS 10 ng/mL, relative IC50, 10 concentrations, geometric mean
Experimental: Monocytic THP-1 cells were maintained in RPMI 1640 media (Gibco 21875)+10% FBS, (Gibco 10500)+1% penicillin/streptomycin (Gibco 15140-122). Cells were then plated at 40,000 cells per well in 384-well cell culture plates (Corning 3542) and maintained with RPMI1640 (Gibco 11835)+5% FBS, (Gibco 10500). Experimental compounds were prepared and added as described above. TNF-α secretion was triggered by the addition of 10 ng/mL LPS (invivoGen, tlrl-3pelps) and cells were incubated for 3 hours. TNF-α levels were monitored directly in the cells plate using an Lumit assay (Lumit TNFa-Human Immunoassay—Promega W6051) according to manufacturers' instructions.
Data were expressed as percentage of inhibition (I %) as compared to a maximum signal control containing no small molecule (I %=0%) according to the formula: 1%=(1−((Sample−Min))/((Max−Min)))×100, where: • Sample: Signal obtained in the presence of each compound tested, • Max: Maximum signal in the absence of compound added, • Min: Minimum or background signal obtained in the absence of activation signal.
Relative IC50 (IC50 rel) were obtained from a dose response curve with 10 concentrations. Final IC50 rels are expressed as the geometric mean.
Relative IC50 values were estimated with Biost@t-SPEED v2.4 internal software based on SAS system using the 4-parameter logistic model according to Ratkovsky and Reedy (D. A. Ratkovsky, T. J. Reedy, Choosing near-linear parameters in the four parameters logistic model radioligands and related assays. Biometrics, 42 (1986), 575-582): Y=A+C/((1+exp(−B*(log(X)−M)))), where: • A: Lower asymptote (BOTTOM), • A+C: Upper asymptote (TOP), • M: the logarithm of the concentration estimated at the inflexion point (the logarithm of the relative IC50), • B: Slope at the inflexion point of the curve.

T1 sequence (Q96P20 whole entry): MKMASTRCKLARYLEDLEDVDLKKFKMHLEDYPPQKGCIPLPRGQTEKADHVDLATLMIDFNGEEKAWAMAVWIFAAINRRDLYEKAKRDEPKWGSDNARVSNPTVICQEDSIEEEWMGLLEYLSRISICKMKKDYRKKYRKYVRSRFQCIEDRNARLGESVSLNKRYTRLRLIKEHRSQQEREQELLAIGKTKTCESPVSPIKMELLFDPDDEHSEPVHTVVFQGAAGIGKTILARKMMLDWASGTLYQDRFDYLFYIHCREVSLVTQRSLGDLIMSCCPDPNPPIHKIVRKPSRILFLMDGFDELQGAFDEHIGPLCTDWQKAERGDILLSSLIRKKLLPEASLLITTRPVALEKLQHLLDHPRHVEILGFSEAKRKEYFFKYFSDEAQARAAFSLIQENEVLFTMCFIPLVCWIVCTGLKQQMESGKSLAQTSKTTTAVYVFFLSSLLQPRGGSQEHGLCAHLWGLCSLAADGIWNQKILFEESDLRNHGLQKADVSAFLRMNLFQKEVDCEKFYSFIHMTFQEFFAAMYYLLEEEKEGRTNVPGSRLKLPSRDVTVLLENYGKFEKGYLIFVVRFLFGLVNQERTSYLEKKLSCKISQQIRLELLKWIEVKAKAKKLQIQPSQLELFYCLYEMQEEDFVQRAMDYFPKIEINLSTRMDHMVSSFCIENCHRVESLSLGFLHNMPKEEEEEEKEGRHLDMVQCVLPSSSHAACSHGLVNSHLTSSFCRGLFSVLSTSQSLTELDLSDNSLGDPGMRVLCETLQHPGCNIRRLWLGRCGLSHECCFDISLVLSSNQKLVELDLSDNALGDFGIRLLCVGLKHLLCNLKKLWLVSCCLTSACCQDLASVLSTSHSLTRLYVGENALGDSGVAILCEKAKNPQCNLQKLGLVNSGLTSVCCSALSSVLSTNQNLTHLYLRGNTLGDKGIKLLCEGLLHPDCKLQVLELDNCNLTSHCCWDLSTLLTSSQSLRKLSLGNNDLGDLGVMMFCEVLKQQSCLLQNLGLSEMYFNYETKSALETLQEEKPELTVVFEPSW

Cc1cc(C)c(-c2ccc(N3CCOC[C@H]3CO)nn2)c(O)c1 [Example 5, 2-[6-[(3R)-3-(hydroxymethyl)morpholin-4-yl]pyridazin-3-yl]-3,5-dimethyl-phenol]
pIC50 (NLRP3 inflammasome): 6.54
pIC50 [1]: < 5.00

Cc1cc(C(F)(F)F)cc(O)c1-c1cc(C(F)F)c(N2CCO[C@H](CO)C2)nn1 [Example 194, 2-[5-(difluoromethyl)-6-[(2S)-2-(hydroxymethyl)morpholin-4-yl]pyridazin-3-yl]-3-methyl-5-(trifluoromethyl)phenol]
pIC50 (NLRP3 inflammasome): 8.40
pIC50 [1]: < 5.00

Cc1cc(C(F)(F)F)cc(O)c1-c1ccc(N2CCC[C@H](CO)C2)nn1 [Example 28, 2-[6-[(3S)-3-(hydroxymethyl)-1-piperidyl]pyridazin-3-yl]-3-methyl-5-(trifluoromethyl)phenol]
pIC50 (NLRP3 inflammasome): 6.96
pIC50 [1]: < 5.00

Cc1cc(C(F)(F)F)cc(O)c1-c1ccc(N2CC[C@H]3CNC[C@H]3C2=O)nn1 (racemic) [Example 264, rac-(3aS,7aR)-5-[6-[2-hydroxy-6-methyl-4-(trifluoromethyl)phenyl]pyridazin-3-yl]-2,3,3a,6,7,7a-hexahydro-1H-pyrrolo[3,4-c]pyridin-4-one, hydrochloride]
pIC50 (NLRP3 inflammasome): 7.16
pIC50 [1]: < 5.00

CNC(=O)C[C@H]1CN(c2ccc(-c3c(C)cc(C)cc3O)nn2)CCO1 (single isomer, unassigned) [Example 143]
pIC50 (NLRP3 inflammasome): 6.66
pIC50 [1]: < 5.00

CCN1CC[C@@H]2OCCN(c3ccc(-c4c(C)cc(C(F)(F)F)cc4O)nn3)[C@@H]2C1 (racemic) [Example 210, 2-[6-[rac-(4aR,8aS)-6-ethyl-3,4a,5,7,8,8a-hexahydro-2H-pyrido[4,3-b][1,4]oxazin-4-yl]pyridazin-3-yl]-3-methyl-5-(trifluoromethyl)phenol]
pIC50 (NLRP3 inflammasome): 9.00
pIC50 [1]: < 5.00

CN1CC[C@H]2OCCN(c3cc(C(F)F)c(-c4ccc(C(F)(F)F)cc4O)nn3)[C@H]2C1 [Example 298, 2-[6-[(4aS,8aR)-6-methyl-3,4a,5,7,8,8a-hexahydro-2H-pyrido[4,3-b][1,4]oxazin-4-yl]-4-(difluoromethyl)pyridazin-3-yl]-5-(trifluoromethyl)phenol]
pIC50 (NLRP3 inflammasome): 8.52
pIC50 [1]: < 5.00

Cc1ccc(F)c(O)c1-c1ccc(N2CCO[C@@H]3CCN(C)C[C@@H]32)nn1 [Example 353, 2-[6-[(4aS,8aR)-6-methyl-3,4a,5,7,8,8a-hexahydro-2H-pyrido[4,3-b][1,4]oxazin-4-yl]pyridazin-3-yl]-6-fluoro-3-methyl-phenol]
pIC50 (NLRP3 inflammasome): 7.54
pIC50 [1]: < 5.00

Cc1cc(Cl)cc(O)c1-c1ccc(N2CCO[C@@H]3CCN(C)C[C@@H]32)nn1 (single isomer, unassigned) [Example 321]
pIC50 (NLRP3 inflammasome): 9.00
pIC50 [1]: < 5.00

CC(=O)N1CC[C@H]2OCCN(c3cc(C(F)F)c(-c4ccc(C(F)(F)F)cc4O)nn3)[C@H]2C1 [Example 386, 1-[(4aS,8aR)-4-[5-(difluoromethyl)-6-[2-hydroxy-4-(trifluoromethyl)phenyl]pyridazin-3-yl]-3,4a,5,7,8,8a-hexahydro-2H-pyrido[4,3-b][1,4]oxazin-6-yl]ethanone]
pIC50 (NLRP3 inflammasome): 7.72
pIC50 [1]: < 5.00

Cc1cc(C)c(-c2ccc(N3CCc4cc(O)ccc43)nn2)c(O)c1 [Example 236, 1-[6-(2-hydroxy-4,6-dimethyl-phenyl)pyridazin-3-yl]indolin-5-ol]
pIC50 (NLRP3 inflammasome): 6.26
pIC50 [1]: 5.02

CC(=O)N1CC[C@H]2OCCN(c3cc(C(F)F)c(-c4ccc(C)cc4O)nn3)[C@H]2C1 [Example 387, 1-[(4aS,8aR)-4-[5-(difluoromethyl)-6-(2-hydroxy-4-methyl-phenyl)pyridazin-3-yl]-3,4a,5,7,8,8a-hexahydro-2H-pyrido[4,3-b][1,4]oxazin-6-yl]ethanone]
pIC50 (NLRP3 inflammasome): 7.51
pIC50 [1]: < 5.00

Cc1ccc(-c2nnc(N3CCO[C@H](CO)C3)cc2C)c(O)c1 [Example 76, 2-[6-[(2S)-2-(hydroxymethyl)morpholin-4-yl]-4-methyl-pyridazin-3-yl]-5-methyl-phenol]
pIC50 (NLRP3 inflammasome): 7.18
pIC50 [1]: 5.07

Cc1cc(C)c(-c2ccc(N3C[C@@H](O)CC3=O)nn2)c(O)c1 [Example 86, (4S)-4-hydroxy-1-[6-(2-hydroxy-4,6-dimethyl-phenyl)pyridazin-3-yl]pyrrolidin-2-one]
pIC50 (NLRP3 inflammasome): 6.30
pIC50 [1]: < 5.00

Cc1cc(C2CC2)cc(O)c1-c1ccc(N2CCO[C@H](CO)C2)nn1 [Example 204, 5-cyclopropyl-2-[6-[(2S)-2-(hydroxymethyl)morpholin-4-yl]pyridazin-3-yl]-3-methyl-phenol]
pIC50 (NLRP3 inflammasome): 7.27
pIC50 [1]: < 5.00

NC[C@@H]1CCN(c2ccc(-c3c(O)cc(Cl)cc3Cl)nn2)C1 [Example 23, 2-[6-[(3S)-3-(aminomethyl)pyrrolidin-1-yl]pyridazin-3-yl]-3,5-dichloro-phenol]
pIC50 (NLRP3 inflammasome): 6.72
pIC50 [1]: < 5.00

CC(=O)N1CC[C@H]2OCCN(c3ccc(-c4c(C)cc(C(F)(F)F)cc4O)nn3)[C@H]2C1 (single isomer, unassigned) [Example 262]
pIC50 (NLRP3 inflammasome): 7.77
pIC50 [1]: < 5.00

COC[C@H]1CCCN1c1ccc(-c2c(C)cc(C(F)(F)F)cc2O)nn1 [Example 14, 2-[6-[(2R)-2-(methoxymethyl)pyrrolidin-1-yl]pyridazin-3-yl]-3-methyl-5-(trifluoromethyl)phenol]
pIC50 (NLRP3 inflammasome): 6.22
pIC50 [1]: < 5.00

CCN1CC[C@H]2OCCN(c3ccc(-c4c(C)cc(C(F)(F)F)cc4O)nn3)[C@H]2C1 (single isomer, unassigned) [Example 256]
pIC50 (NLRP3 inflammasome): 9.00
pIC50 [1]: < 5.00

CC(=O)NC[C@@H]1CN(c2ccc(-c3c(C)cc(Cl)cc3O)nn2)CCO1 [Example 267, N-[[(2R)-4-[6-(4-chloro-2-hydroxy-6-methyl-phenyl)pyridazin-3-yl]morpholin-2-yl]methyl]acetamide]
pIC50 (NLRP3 inflammasome): 6.73
pIC50 [1]: < 5.00

CN1CC[C@H]2OCCN(c3cc(C(F)F)c(-c4ccc(Cl)cc4O)nn3)[C@H]2C1 [Example 350, 2-[6-[(4aS,8aR)-6-methyl-3,4a,5,7,8,8a-hexahydro-2H-pyrido[4,3-b][1,4]oxazin-4-yl]-4-(difluoromethyl)pyridazin-3-yl]-5-chloro-phenol]
pIC50 (NLRP3 inflammasome): 9.00
pIC50 [1]: < 5.00

Cc1cc(C(F)(F)F)cc(O)c1-c1ccc(N2C[C@@H](O)CC2=O)nn1 [Example 62, (4S)-4-hydroxy-1-[6-[2-hydroxy-6-methyl-4-(trifluoromethyl)phenyl]pyridazin-3-yl]pyrrolidin-2-one]
pIC50 (NLRP3 inflammasome): 7.28
pIC50 [1]: < 5.00

Cc1cc(O)c(-c2ccc(N3CCO[C@H](CO)C3)nn2)c(Cl)c1 [Example 172, 3-chloro-2-[6-[(2S)-2-(hydroxymethyl)morpholin-4-yl]pyridazin-3-yl]-5-methyl-phenol]
pIC50 (NLRP3 inflammasome): 7.44
pIC50 [1]: < 5.00

CCc1cc(N2CCO[C@@H]3CCN(C)C[C@@H]32)nnc1-c1ccc(C(F)(F)F)cc1O [Example 443, 2-[6-[(4aS,8aR)-6-methyl-3,4a,5,7,8,8a-hexahydro-2H-pyrido[4,3-b][1,4]oxazin-4-yl]-4-ethyl-pyridazin-3-yl]-5-(trifluoromethyl)phenol]
pIC50 (NLRP3 inflammasome): 8.00
pIC50 [1]: < 5.00

Cc1cc(C)c(-c2ccc(N3CC[C@@H](CO)C3)nn2)c(O)c1 [Example 65, 2-[6-[(3R)-3-(hydroxymethyl)pyrrolidin-1-yl]pyridazin-3-yl]-3,5-dimethyl-phenol]
pIC50 (NLRP3 inflammasome): 6.82
pIC50 [1]: < 5.00

Cc1cc(C)c(-c2ccc(N3CCOC([C@@H](C)O)C3)nn2)c(O)c1 (single isomer, unassigned) [Example 180]
pIC50 (NLRP3 inflammasome): 6.33
pIC50 [1]: < 5.00

CC(=O)NC[C@H]1CN(c2ccc(-c3c(C)cc(Cl)cc3O)nn2)CCO1 [Example 280, N-[[(2S)-4-[6-(4-chloro-2-hydroxy-6-methylphenyl)pyridazin-3-yl]morpholin-2-yl]methyl]acetamide]
pIC50 (NLRP3 inflammasome): 7.12
pIC50 [1]: < 5.00

Cc1cc(C(F)(F)F)cc(O)c1-c1ccc(N2CCO[C@H](C)C2)nn1 [Example 258, 3-methyl-2-[6-[(2R)-2-methylmorpholin-4-yl]pyridazin-3-yl]-5-(trifluoromethyl)phenol]
pIC50 (NLRP3 inflammasome): 7.52
pIC50 [1]: < 5.00

Cc1cc(C(F)(F)F)cc(O)c1-c1ccc(N2C[C@H](CO)O[C@H](C)C2)nn1 [Example 302, 2-[6-[(2R,6R)-2-(hydroxymethyl)-6-methyl-morpholin-4-yl]pyridazin-3-yl]-3-methyl-5-(trifluoromethyl)phenol]
pIC50 (NLRP3 inflammasome): 7.89
pIC50 [1]: < 5.00
